From patent publication US20070190181A1, “Methods of treating cancer with lipid-based platinum compound forumulations administered intravenously” (priority 2005, published 2007)

Columns and labels:
[1] = Pharmacokinetics and organ distribution of ip and iv injected L-CDDP and CDDP (platinum by ICP-MS); format: in vivo, ICR mice; conditions: 8 mg/kg
Procedure: Pharmacokinetics and organ distribution in animals of ip and iv injected lipid-based cisplatin and cisplatin (Part II). Sixty ICR mice (female, 7 weeks old) were divided into 4 groups. They received intraperitoneal or intravenous injection of L-CDDP or CDDP, separately. The dose was 12 mg/kg for ip L-CDDP and 8 mg/kg for the rest of treatment groups. At each designed time point, three to four mice were anaesthetized with 70 mg/kg of Nembutal ip (e.g., 3, 20, and 40 min, and 2, 8, 24, 48, and 72 h). […] Organs including liver, lung, and spleen were resected from the mice. The organ samples were homogenized in distilled water (4-fold of the sample weight) and digested with nitric acid. The platinum concentration in each sample was measured by Inductively Coupled Plasma-Mass Spectrometer (ICP-MS). The pharmacokinetics profiles (FIGS. 4, 5, and 6, all Y-axes are concentration of μg platinum in one gram of tissue or fluid per mg of injected dose) and parameters (Table 4) of each formulation were simulated and calculated.

[2] = test system: Lewis Lung cells; experiment: murine Lewis lung tumor metastasis model (lung tumor weight); format: in vivo, C57B1/6 mice
[3] = Nephrotoxicity at MTD (BUN and kidney pathology grading); format: in vivo; conditions: four days after injection
Excerpt: Nephrotoxicity. ICR mice, 7 weeks old, female, were divided into 4 groups with 3 to 4 mice in each. […] Four days after the injection, the mice were euthanized with Nembutal ip. The blood was drawn and the serum was isolated. The blood urea nitrogen (BUN) was quantitatively measured with a calorimetric method at Antech Diagnostics. Organs including duodenum, heart, kidney, liver, lung, and spleen were resected from the mice and fixed with 10% buffered Formalin. The fixed tissues were processed with standard procedure for H and E staining. A pathology expert Dr. Carman Tomos at the Memorial Sloan-Kettering Cancer Center examined kidney tissues and gave a toxicity grade to each kidney tissue sample. The grading was based on the general pathology guidelines for kidney toxicity.

N.N.[Cl][Pt][Cl] [CDDP, cis diamminedichloroplatinum]
AUC ([1]; Liver): 19.96 µg·h/g/µg | AUC ([1]; Lung): 5.58 µg·h/g/µg | AUC ([1]; Spleen): 8.11 µg·h/g/µg | inhibition of growth of Lewis lung tumors ([2]; inhalation therapy, nebulized 1 mg/ml, days 5, 8 and 11): did not significantly inhibit | inhibition of tumor growth (Lewis lung tumor weight vs saline) ([2]; three iv doses of 2 mg/kg on days 5, 8 and 11 post tumor cell injection): no significant inhibition of tumor growth | increase of BUN level compared with normal controls ([3]; ip, p=0.04): 2.1 fold | increase of BUN level compared with normal controls ([3]; iv, p=0.008): 6.8 fold
